A word on the IC95: it is the point of the concentration-response curve where the effect stands at 95%. A lower IC95 goes with greater potency.

The experiment concerns acute HIV infection of T-lymphoid cells. Kind of experiment: Inhibition of acute HIV infection of T-lymphoid cells (spread assay). Format: cell-based. The following applies: Human immunodeficiency virus 1. The protocol: An assay for the inhibition of acute HIV infection of T-lymphoid cells (alternatively referred to herein as the “spread assay”) was conducted in accordance with Vacca, J. P. et al., Proc. Natl. Acad. Sci. USA 1994, 91: 4096.

Bounds are passed on as bounds.

`CN1C[C@H](c2ccccc2)n2nc(C(=O)NCc3ccc(F)cc3C(N)=O)c(O)c2C1=O` [Example 42, (7S)-N-[2-(Aminocarbonyl)-4-fluorobenzyl]-3-hydroxy-5-methyl-4-oxo-7-phenyl-4,5,6,7-tetrahydropyrazolo[1,5-a]pyrazine-2-carboxamide] showed an IC95 of at most 10 µM.

`CN1CC(C(=O)N2CCCCC2)n2nc(C(=O)NCc3ccc(F)cc3)c(O)c2C1=O` (centres unmarked) [Example 7, N-(4-Fluorobenzyl)-3-hydroxy-5-methyl-4-oxo-7-(piperidin-1-ylcarbonyl)-4,5,6,7-tetrahydropyrazolo[1,5-a]pyrazine-2-carboxamide] came in with an IC95 of at most 10 µM.

`Cc1cn(C)c(=O)c2c(O)c(C(=O)NCc3ccc(F)cc3)nn12` [Example 10, 5,7-Dimethyl-N-(4-fluorobenzyl)-3-hydroxy-4-oxo-4,5-dihydropyrazolo[1,5-a]pyrazine-2-carboxamide] gave an IC95 of at most 10 µM.

In the case of `CNC(=O)c1cc(F)ccc1CNC(=O)c1nn2c(c1O)C(=O)N(C)CC2c1ccccc1` (centres unmarked) [Example 3, N-(4-Fluoro-2-[(methylamino)carbonyl]benzyl)-3-hydroxy-5-methyl-4-oxo-7-phenyl-4,5,6,7-tetrahydropyrazolo[1,5-a]pyrazine-2-carboxamide], the 95% effect concentration (IC95) is at most 10 µM.

With `CNC(=O)c1nn2c(c1O)C(=O)N(Cc1ccc(F)cc1)CC2c1ccccc1` (centres unmarked) [Example 4, 5-(4-Fluorobenzyl)-3-hydroxy-N-methyl-4-oxo-7-phenyl-4,5,6,7-tetrahydropyrazolo[1,5-a]pyrazine-2-carboxamide], the IC95 is at most 10 µM.

`CN(C)C(=O)c1cc(F)ccc1CNC(=O)c1nn2c(c1O)C(=O)N(C)C[C@H]2c1ccccc1` [Example 37, (7R)-N-{2-[(Dimethylamino)carbonyl]-4-fluorobenzyl}-3-hydroxy-5-methyl-4-oxo-7-phenyl-4,5,6,7-tetrahydropyrazolo[1,5-a]pyrazine-2-carboxamide] displayed an IC95 of at most 10 µM.

In the case of `O=C(c1nn2c(c1O)C(=O)N(Cc1ccc(F)cc1)CC2)N1CCC1` [Example 27, 2-(Azetidin-1-ylcarbonyl)-5-(4-fluorobenzyl)-3-hydroxy-4-oxo-4,5,6,7-tetrahydropyrazolo[1,5-a]pyrazine], the IC95 was at most 10 µM.

In turn, `CN1C[C@H](c2ccccc2)n2nc(C(=O)NCc3ccc(F)cc3C(=O)NC3CC3)c(O)c2C1=O` [Example 36, (7S)-N-{2-[(Cyclopropylamino)carbonyl]-4-fluorobenzyl}-3-hydroxy-5-methyl-4-oxo-7-phenyl-4,5,6,7-tetrahydropyrazolo[1,5-a]pyrazine-2-carboxamide] gave an IC95 of at most 10 µM.

Molecule `CN1CC(c2cccnc2)n2nc(C(=O)NCc3ccc(F)cc3)c(O)c2C1=O` (centres unmarked) [Example 31, N-(4-fluorobenzyl)-3-hydroxy-5-methyl-4-oxo-7-pyridin-3-yl-4,5,6,7-tetrahydropyrazolo[1,5-a]pyrazine-2-carboxamide] displayed an IC95 of at most 10 µM.

On to `O=C(NCCN1CCOCC1)c1nn2c(c1O)C(=O)N(Cc1ccc(F)cc1)CC2` [Example 23, 5-(4-Fluorobenzyl)-3-hydroxy-N-[2-(4-morpholinyl)ethyl]-4-oxo-4,5,6,7-tetrahydropyrazolo[1,5-a]pyrazine-2-carboxamide], for which the IC95 was at most 10 µM.

In turn, `O=C(NCc1ccc(Cl)c(Cl)c1)c1nn2c(c1O)C(=O)N(CC(=O)N1CCOCC1)CC2` [Example 20, N-(3,4-Dichlorobenzyl)-3-hydroxy-5-[2-(4-morpholinyl)-2-oxoethyl]-4-oxo-4,5,6,7-tetrahydropyrazolo[1,5-a]pyrazine-2-carboxamide] returned an IC95 of at most 10 µM.

`CN(C)C(=O)C1(C)CN(C)C(=O)c2c(O)c(C(=O)NCc3ccc(F)cc3)nn21` (centres unmarked) [Example 8, 5,7-Dimethyl-N-(4-fluorobenzyl)-3-hydroxy-7-(dimethylaminocarbonyl)-4-oxo-4,5,6,7-tetrahydropyrazolo[1,5-a]pyrazine-2-carboxamide] showed an IC95 of at most 10 µM.

Consider `O=C(NCc1ccc(Cl)c(Cl)c1)c1nn2c(c1O)C(=O)N(CCN1CCOCC1)CC2` [Example 22, N-(3,4-Dichlorobenzyl)-3-hydroxy-5-[2-(4-morpholinyl)ethyl]-4-oxo-4,5,6,7-tetrahydropyrazolo[1,5-a]pyrazine-2-carboxamide], for which the IC95 was at most 10 µM.

The molecule `CC1Cn2nc(C(=O)NCc3ccc(F)cc3)c(O)c2C(=O)N1C` (centres unmarked) [Example 5, 5,6-Dimethyl-N-(4-fluorobenzyl)-3-hydroxy-4-oxo-4,5,6,7-tetrahydropyrazolo[1,5-a]pyrazine-2-carboxamide] came in with an IC95 of at most 10 µM.

With `O=C(NCc1ccc(F)cc1)c1nn2c(c1O)C(=O)NCCC2` [Example 29, N-(4-Fluorobenzyl)-3-hydroxy-4-oxo-5,6,7,8-tetrahydro-4H-pyrazolo[1,5-a][1,4]diazepine-2-carboxamide], the IC95 was at most 10 µM.

The molecule `CCCCNC(=O)c1nn2c(c1O)C(=O)N(Cc1ccc(F)cc1)CC2` [Example 24, N-Butyl-5-(4-fluorobenzyl)-3-hydroxy-4-oxo-4,5,6,7-tetrahydropyrazolo[1,5-a]pyrazine-2-carboxamide] gave an IC95 of at most 10 µM.

In turn, `CCNC(=O)c1cc(F)ccc1CNC(=O)c1nn2c(c1O)C(=O)N(C)C[C@H]2c1ccccc1` [Example 39, (7R)-N-{2-[(Ethylamino)carbonyl]-4-fluorobenzyl}-3-hydroxy-5-methyl-4-oxo-7-phenyl-4,5,6,7-tetrahydropyrazolo[1,5-a]pyrazine-2-carboxamide] showed a 95% effect concentration (IC95) of at most 10 µM.

With `CC(C)C1CN(C)C(=O)c2c(O)c(C(=O)NCc3ccc(F)cc3)nn21` (centres unmarked) [Example 48, N-(4-Fluorobenzyl)-3-hydroxy-7-isopropyl-5-methyl-4-oxo-4,5,6,7-tetrahydropyrazolo[1,5-a]pyrazine-2-carboxamide], the IC95 is at most 10 µM.

For `CN1CC(c2ccncc2)n2nc(C(=O)NCc3ccc(F)c(Cl)c3)c(O)c2C1=O` (centres unmarked) [Example 46, N-(3-Chloro-4-fluorobenzyl)-3-hydroxy-5-methyl-4-oxo-7-pyridin-4-yl-4,5,6,7-tetrahydropyrazolo[1,5-a]pyrazine-2-carboxamide], the IC95 was at most 10 µM.

For the molecule `CN1CC(CN2CCCCC2)n2nc(C(=O)NCc3ccc(F)cc3)c(O)c2C1=O` (centres unmarked) [Example 9, N-(4-fluorobenzyl)-3-hydroxy-5-methyl-4-oxo-7-(piperidin-1-ylmethyl)-4,5,6,7-tetrahydropyrazolo[1,5-a]pyrazine-2-carboxamide], the IC95 was at most 10 µM.

Take `Cc1nc(C2CN(C)C(=O)c3c(O)c(C(=O)NCc4ccc(F)cc4)nn32)cs1` (centres unmarked) [Example 12, N-(4-Fluorobenzyl)-3-hydroxy-5-methyl-(2-methyl-1,3-thiazol-4-yl)-4-oxo-4,5,6,7-tetrahydropyrazolo[1,5-a]pyrazine-2-carboxamide]: the IC95 was at most 10 µM.

`CN(C)C(=O)c1cc(F)ccc1CNC(=O)c1nn2c(c1O)C(=O)N(C)C[C@@H]2c1ccccc1` [Example 38, (7S)-N-{2-[(Dimethylamino)carbonyl]-4-fluorobenzyl}-3-hydroxy-5-methyl-4-oxo-7-phenyl-4,5,6,7-tetrahydropyrazolo[1,5-a]pyrazine-2-carboxamide] came in with an IC95 of at most 10 µM.

`CNC(=O)c1cc(F)ccc1CNC(=O)c1nn2c(c1O)C(=O)N(C)C[C@@H]2c1ccccc1` [Example 33, (7S)—N-{4-Fluoro-2-[(methylamino)carbonyl]benzyl}-3-hydroxy-5-methyl-4-oxo-7-phenyl-4,5,6,7-tetrahydropyrazolo[1,5-a]pyrazine-2-carboxamide] displayed an IC95 of at most 10 µM.
